PubChem BioAssay (NCI)
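Following 48 hours of exposure in 96-well plates, responses at five concentrations were used to interpolate endpoints linearly. TGI: concentration producing complete growth inhibition.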

How the values were obtained:
Assay in all cases: growth of human tumour cells (NCI), 48 h
[1] = test system: HOP-18 NSCLC
[2] = test system: RPMI-8226 leukemia
[3] = test system: LOX IMVI melanoma
[4] = test system: KM12 colon
[5] = test system: ACHN renal
[6] = test system: A498 renal
[7] = test system: SNB-75 CNS
[8] = test system: UO-31 renal
[9] = test system: UACC-257 melanoma
[10] = test system: COLO 205 colon
[11] = test system: NCI-H23 lung
[12] = test system: HCT-15 colon
[13] = test system: HOP-92 NSCLC
[14] = test system: SN12C renal
[15] = test system: HCC-2998 colon
[16] = test system: M14 melanoma
[17] = test system: RXF 393 renal
[18] = test system: SF-539 CNS
[19] = test system: MALME-3M melanoma
[20] = test system: EKVX NSCLC
[21] = test system: CCRF-CEM leukemia
[22] = test system: SNB-78 CNS
[23] = test system: OVCAR-3 ovarian
[24] = test system: MOLT-4 leukemia
[25] = test system: K-562 leukemia
[26] = test system: U251 CNS
[27] = test system: SNB-19 CNS
[28] = test system: SF-295 CNS
[29] = test system: SK-OV-3 ovarian
[30] = test system: SK-MEL-5 melanoma
[31] = test system: UACC-62 melanoma
[32] = test system: RXF-631 renal
[33] = test system: SK-MEL-28 melanoma
[34] = test system: SK-MEL-2 melanoma
[35] = test system: HL-60(TB) leukemia
[36] = test system: XF 498 CNS
[37] = test system: SR leukemia
[38] = test system: SF-268 CNS
[39] = test system: NCI-H226 lung
[40] = test system: HOP-62 NSCLC
[41] = test system: 786-0 renal
[42] = test system: LXFL 529 NSCLC
[43] = test system: OVCAR-5 ovarian
[44] = test system: HCT-116 colon
[45] = test system: IGROV1 ovarian
[46] = test system: HT29 colon
[47] = test system: DLD-1 colon
[48] = test system: DMS 114 small cell lung
[49] = test system: TK-10 renal
[50] = test system: OVCAR-4 ovarian
[51] = test system: SW-620 colon
[52] = test system: NCI-H460 lung
[53] = test system: OVCAR-8 ovarian
[54] = test system: M19-MEL melanoma
[55] = test system: KM20L2 colon
[56] = test system: NCI-H522 lung
[57] = test system: DMS 273 small cell lung
[58] = test system: CAKI-1 renal
[59] = test system: A549 NSCLC

BrC1=CC=C2NC=CC3=CC=NC1C32 (centres undefined)
TGI [1]: 66.8 µM | TGI [2]: 37.8 µM | TGI [3]: 21.4 µM | TGI [4]: > 100 µM | TGI [5]: > 93.8 µM | TGI [6]: 85.4 µM | TGI [7]: 98.9 µM | TGI [8]: 51.3 µM | TGI [9]: 98.8 µM | TGI [10]: 58.5 µM | TGI [11]: > 82.8 µM | TGI [12]: > 100 µM | TGI [13]: 71.2 µM | TGI [14]: > 100 µM | TGI [15]: > 100 µM | TGI [16]: 56.2 µM | TGI [17]: 51.7 µM | TGI [18]: > 100 µM | TGI [19]: 67.1 µM | TGI [20]: > 96.3 µM | TGI [21]: 28.6 µM | TGI [22]: > 100 µM | TGI [23]: 80.6 µM | TGI [24]: 15.6 µM | TGI [25]: 52.8 µM | TGI [26]: > 100 µM | TGI [27]: > 75 µM | TGI [28]: > 100 µM | TGI [29]: > 100 µM | TGI [30]: 45.4 µM | TGI [31]: 22.6 µM | TGI [32]: > 100 µM | TGI [33]: > 100 µM | TGI [34]: 56.9 µM | TGI [35]: 12.1 µM | TGI [36]: 48 µM | TGI [37]: 26 µM | TGI [38]: > 92.5 µM | TGI [39]: 45.9 µM | TGI [40]: > 100 µM | TGI [41]: > 100 µM | TGI [42]: > 70 µM | TGI [43]: > 75.5 µM | TGI [44]: 21.1 µM | TGI [45]: > 100 µM | TGI [46]: > 66.2 µM | TGI [47]: > 65.2 µM | TGI [48]: 58.1 µM | TGI [49]: 99.8 µM | TGI [50]: 97.3 µM | TGI [51]: > 60.6 µM | TGI [52]: 17.9 µM | TGI [53]: > 94 µM | TGI [54]: 30.1 µM | TGI [55]: > 100 µM | TGI [56]: 27.3 µM | TGI [57]: > 92.5 µM

CCC/C(=N/NC(=O)C(N)=O)C(CC)C(=O)CCC(=O)N(Cc1ccccc1)Cc1ccccc1 (centres undefined)
TGI [1]: > 100 µM | TGI [2]: > 100 µM | TGI [3]: > 100 µM | TGI [4]: > 100 µM | TGI [5]: > 100 µM | TGI [6]: > 100 µM | TGI [7]: > 100 µM | TGI [8]: > 100 µM | TGI [9]: > 100 µM | TGI [10]: > 100 µM | TGI [11]: > 100 µM | TGI [12]: > 100 µM | TGI [13]: > 100 µM | TGI [14]: > 100 µM | TGI [15]: > 100 µM | TGI [16]: > 100 µM | TGI [17]: > 100 µM | TGI [18]: > 100 µM | TGI [19]: > 100 µM | TGI [20]: > 100 µM | TGI [21]: > 100 µM | TGI [22]: > 100 µM | TGI [23]: > 100 µM | TGI [24]: > 100 µM | TGI [25]: > 100 µM | TGI [26]: > 100 µM | TGI [27]: > 100 µM | TGI [28]: > 100 µM | TGI [29]: > 100 µM | TGI [30]: > 100 µM | TGI [31]: > 100 µM | TGI [32]: > 100 µM | TGI [33]: > 100 µM | TGI [34]: > 100 µM | TGI [35]: > 100 µM | TGI [36]: > 100 µM | TGI [37]: > 100 µM | TGI [38]: > 100 µM | TGI [39]: > 100 µM | TGI [40]: > 100 µM | TGI [41]: > 100 µM | TGI [42]: > 100 µM | TGI [43]: > 100 µM | TGI [44]: > 100 µM | TGI [58]: > 100 µM | TGI [45]: > 100 µM | TGI [46]: > 100 µM | TGI [59]: > 100 µM | TGI [48]: > 100 µM | TGI [49]: > 100 µM | TGI [51]: > 100 µM | TGI [52]: > 100 µM | TGI [53]: > 100 µM | TGI [54]: > 100 µM | TGI [55]: > 100 µM | TGI [56]: > 100 µM | TGI [57]: > 100 µM
